Reference: paper PMC11277145, “Wrinkle-Improving Effect of Novel Peptide That Binds to Nicotinic Acetylcholine Receptor” (International Journal of Molecular Sciences, 2024)

Tests used:
nAChRs = details: ref [16]; read-out: IC50 (binds to nAChRs and inhibits the action of ACh); cited from earlier work
Text: Muscle contraction is induced by acetylcholine (ACh), a neurotransmitter released from nerve cells. ACh is released into the space between muscles and nerves when synaptic vesicles fuse with the cell membrane through the action of the SNARE (Soluble N-ethylmaleimide-sensitive factor attachment protein receptor) complex within nerve cells. Released ACh binds to nAChR or muscarinic acetylcholine receptor (mAChR) on the muscle cell surface to induce muscle contraction. Facial wrinkles are formed by muscle contraction through the binding of muscle nAChRs (subtypes α1, β1, δ, γ, and ...

[1] = test system: muscle nAChR (TE671 cells expressing nAChRs); experiment: In vitro intracellular nicotine response assay; assay type: cell-based, human; details: 400 μM nicotine; for nicotine response: Fura-2-AM 340/380 nm, positive control, mean of three repeated measurements
Description: TE671 rhabdomyosarcoma cell line was purchased from Korea Cell Line Bank (Seoul, Republic of Korea). Dermal fibroblasts (Hs68) were purchased from American Type Culture Collection. Cells were cultured in Dulbecco’s Modified Eagle’s medium (DMEM) and medium containing 10% fetal bovine serum (FBS), 1% penicillin-streptomycin at 37 °C, and up to 5% CO2. Human skin keratinocytes (HEKn) were purchased from Thermo Fisher Scientific (Waltham, MA, USA) and cultured using keratinocyte growth medium, keratinocyte-SFM supplemented with epidermal growth factor (EGF) and bovine pituitary extract (BPE) at 37 °C, and up to 5% CO2.
TE671 cells were cultured in DMEM and medium containing 10% FBS, 1% penicillin-streptomycin at 37 °C, and up to 5% CO2. An 18 mm coverslip was placed on a 12-well cell culture plate, cultured cells were removed with trypsin, and 1 mL was dispensed into each well to make 2 × 10^4 cells/well, followed by culturing for 4 days. The coverslip with the cultured cells was transferred to a new 12-well plate, mixed with 997 μL of HBSS buffer and 3 μL of Fura-2-AM (Invitrogen, Waltham, MA, USA), and incubated for 15 min. After incubation, the remaining Fura-2-AM was removed by washing three times with HBSS buffer, and 1 mL of HBSS buffer was additionally dispensed. After mounting the coverslip in the chamber (Live Cell Instrument, Namyangju-si, Republic of Korea), 500 μL of HBSS buffer was dispensed, and the peptide and nicotine samples to be tested were adjusted according to the concentration. Then, 10 to 20 cells were selected and captured alternately at 340 nm and 380 nm wavelengths at 500 ms intervals through a fluorescence microscope (DMI3000 B, Leica Microsystems, Wetzlar, Germany). The fluorescence ratio at 340/380 nm was calculated using the LAS X program.

[2] = test system: human cornea model (MCTT HCE^TM); experiment: Eye irritation test, human cornea model (MCTT HCE); assay type: cell-based; details: methyl acetate (no concentration)
Description: To evaluate the eye irritation potential of the peptide, an in vitro experimental model recognized by the OECD as an alternative animal evaluation method, the human cornea model (MCTT HCE^TM), was used. The experiment was conducted according to the standard experimental method provided by the manufacturer, Biosolution (Seoul, Republic of Korea). First, before the experiment, the color interference of the test material was checked, and to begin the experiment, MCTT HCE^TM was incubated for 22 h at 5% CO2 and 37 °C. Next, 40 μL of the peptide was applied to the top of the MCTT HCE^TM and left to react for 10 min. Afterwards, the peptide was removed using DPBS, and MCTT HCE^TM was transferred to a new medium and cultured for 18 h at 5% CO2 and 37 °C. After the culture was completed, 200 μL/well of WST-1 solution diluted at a ratio of 1:25 was added to a new plate, MCTT HCE^TM was transferred thereon, and 100 μL of WST-1 solution was treated inside.

dipeptide diaminobutyroyl benzylamide [SYN®-AKE]
IC50 (nAChRs): 180 µM | nicotine response ([1]; 100 μM): 98% | nicotine response ([1]; 250 μM): 52.5% | concentration required to inhibit the nicotinic response [1]: 500 µM | nicotine response ([1]; 500 μM): 3.5%

COC(C)=O [Methyl acetate, reference compound]
Average absorption, second value [2]: 0.066 | eye irritation judgement (Standard) [2]: Irritant | Cell survival (%Control) ([2]; 10 min exposure, 18 h post-culture, WST-1): 4.70% | Average absorption ([2]; mean of N1 and N2): 0.12 | Absorption (N1) ([2]; replicate N1, WST-1, 450 nm): 0.102 | Absorption (N2) ([2]; replicate N2, WST-1, 450 nm): 0.138
